ED50 data for ten molecules are collected here from ChEMBL document CHEMBL1122549, “Opioid agonists and antagonists. 6,6-Hydrazi and 6-oximino derivatives of 14-hydroxydihydromorphinones” (1984).

Common to all, as to assay type: functional
Test [1] deals with Mus musculus. Description: Compound was evaluated in vivo for the antagonist activity by the tail flick assay using morphine as the agonist in mice.
Test [2] deals with Mus musculus. Description: Compound was evaluated in vivo for the agonist activity after subcutaneous administration as aqueous solutions of HCl salt in mice using Nilsen assay. Conditions: sc.
The subject of test [3] is Mus musculus. Description: Compound was evaluated in vivo for the agonist activity after subcutaneous administration as aqueous solutions of HCl salt in mice using Phenylquinone (PPQ) writhing assay. The settings on record: sc.
Test [4] has as its system Mus musculus. The experiment in a line: Compound was evaluated in vivo for the agonist activity after subcutaneous administration as aqueous solutions of HCl salt in mice using Tail flick assay. Conditions: sc.
In test [5] the test system is Mus musculus. Description: Compound was evaluated in vivo for the agonist activity after subcutaneous administration as aqueous solutions of HCl salt in mice using Hot plate assay. Conditions: sc.
The test system of test [6] is Mus musculus. Description: Compound was evaluated in vivo for the antagonist activity by the tail flick assay using morphine as the agonist in mice.
In test [7] the test system is Mus musculus. The experiment in a line: Compound was evaluated in vivo for the agonist activity after subcutaneous administration as aqueous solutions of HCl salt in mice using Nilsen assay. The settings on record: sc.

On to `CO/N=C1\CCC2(O)C3Cc4ccc(O)c5c4C2(CCN3CC2CC2)C1O5` (centres undefined), for which the 50% effect level with Mus musculus [1] (ED50) was put at a dose of 0.08 mg/kg.
With `CN1CCC23c4c5ccc(O)c4OC2C2(CCC3(O)C1C5)NN2` (centres undefined), the ED50 stood at 2 mg/kg in the test with Mus musculus [2], 0.05 mg/kg with Mus musculus [3], 0.7 mg/kg in the test on Mus musculus [4] and 0.81 mg/kg with Mus musculus [5].
In the case of `Oc1ccc2c3c1OC1C4(CCC5(O)C(C2)N(CC2CC2)CCC315)NN4` (centres undefined), in the test with Mus musculus [6], the 50% effect level (ED50) was put at a dose of 0.02 mg/kg.
Turning to `CN1CCC23c4c5ccc(O)c4OC2/C(=N/O)CCC3(O)C1C5` (centres undefined), the ED50 in the test on Mus musculus [3] is 0.1 mg/kg; in the test with Mus musculus [4], 2.2 mg/kg; in the test with Mus musculus [7] it was 0.45 mg/kg; with Mus musculus [5], 0.56 mg/kg.
In the case of `O/N=C1\CCC2(O)C3Cc4ccc(O)c5c4C2(CCN3CC2CC2)C1O5` (centres undefined), in the test on Mus musculus [6], the 50% effect level (ED50) was put at a dose of 0.08 mg/kg.
Molecule `C=CCN1CCC23c4c5ccc(O)c4OC2/C(=N/O)CCC3(O)C1C5` (centres undefined) had an ED50 in the test with Mus musculus [1] of 0.06 mg/kg.
On to `CO/N=C1\CCC2(O)C3Cc4ccc(O)c5c4C2(CCN3C)C1O5` (centres undefined), for which the 50% effective dose (ED50) was determined as 0.02 mg/kg in the test on Mus musculus [3], 0.08 mg/kg with Mus musculus [4] and 0.22 mg/kg in the test on Mus musculus [5].
In the test on Mus musculus [1], `C=CCN1CCC23c4c5ccc(O)c4OC2/C(=N/OC)CCC3(O)C1C5` (centres undefined) gave an ED50 of 1.9 mg/kg.
`CN1CC[C@]23c4c5ccc(O)c4O[C@H]2[C@@H](O)CC[C@H]3[C@H]1C5.Cl`: the median effective dose (ED50) came out at 0.2 mg/kg in the test with Mus musculus [7] and 0.19 mg/kg in the test on Mus musculus [5].
As to `Cl.O=C1CC[C@@]2(O)[C@H]3Cc4ccc(O)c5c4[C@@]2(CCN3CC2CC2)[C@H]1O5` [NALTREXONE HYDROCHLORIDE], the ED50 in the test on Mus musculus [6] was determined as 0.007 mg/kg.
